Key:
ENaC = target: T1, ENaC (Canis lupus familiaris, UniProt A0A8I3MKE6+A0A8I3Q679+Q95165); assay: In vitro sodium channel blocking activity and reversibility (short circuit current, Ussing chambers); type: cell-based, canine
T1 construct: using primary cultures of canine bronchial epithelial cells; endogenous in cells; host or cells: primary canine bronchial epithelial cells cultured at air-liquid interface
T1 sequence (A0A8I3Q679 1-649): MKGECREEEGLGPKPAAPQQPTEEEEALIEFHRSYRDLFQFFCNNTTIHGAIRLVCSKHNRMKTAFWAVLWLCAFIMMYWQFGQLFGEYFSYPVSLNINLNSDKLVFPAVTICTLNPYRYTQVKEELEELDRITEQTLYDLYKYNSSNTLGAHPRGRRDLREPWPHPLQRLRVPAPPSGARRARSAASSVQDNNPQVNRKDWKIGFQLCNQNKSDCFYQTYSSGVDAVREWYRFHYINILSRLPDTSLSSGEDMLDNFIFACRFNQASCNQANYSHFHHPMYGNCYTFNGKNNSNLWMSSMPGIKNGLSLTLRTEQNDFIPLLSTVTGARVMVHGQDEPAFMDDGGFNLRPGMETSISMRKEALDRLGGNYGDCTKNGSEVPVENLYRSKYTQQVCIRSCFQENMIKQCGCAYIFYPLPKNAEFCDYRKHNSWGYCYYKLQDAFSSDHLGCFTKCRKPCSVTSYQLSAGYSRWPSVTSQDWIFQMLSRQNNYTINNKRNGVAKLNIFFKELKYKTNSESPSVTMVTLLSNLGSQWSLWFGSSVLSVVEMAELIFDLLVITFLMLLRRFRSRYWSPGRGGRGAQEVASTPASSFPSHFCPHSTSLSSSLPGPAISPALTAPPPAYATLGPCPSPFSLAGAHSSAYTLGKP
T1 sequence (Q95165 1-641): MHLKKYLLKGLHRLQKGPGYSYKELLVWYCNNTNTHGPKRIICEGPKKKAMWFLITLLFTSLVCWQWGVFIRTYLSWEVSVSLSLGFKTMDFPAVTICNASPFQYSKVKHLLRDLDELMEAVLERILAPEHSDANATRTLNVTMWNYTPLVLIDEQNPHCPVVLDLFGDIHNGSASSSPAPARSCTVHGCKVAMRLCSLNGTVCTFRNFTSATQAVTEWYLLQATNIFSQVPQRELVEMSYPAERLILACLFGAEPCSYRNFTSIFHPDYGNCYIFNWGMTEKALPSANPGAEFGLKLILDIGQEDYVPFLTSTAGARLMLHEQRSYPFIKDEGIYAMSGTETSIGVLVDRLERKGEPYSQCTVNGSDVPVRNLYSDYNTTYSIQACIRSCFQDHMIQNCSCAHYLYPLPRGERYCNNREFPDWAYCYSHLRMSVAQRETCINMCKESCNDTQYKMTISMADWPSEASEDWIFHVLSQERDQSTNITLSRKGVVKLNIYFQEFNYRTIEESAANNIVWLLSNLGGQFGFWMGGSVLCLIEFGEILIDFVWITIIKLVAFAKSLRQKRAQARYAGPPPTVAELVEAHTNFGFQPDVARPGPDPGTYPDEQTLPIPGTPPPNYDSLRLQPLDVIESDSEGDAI
T1 sequence (A0A8I3MKE6 1-646): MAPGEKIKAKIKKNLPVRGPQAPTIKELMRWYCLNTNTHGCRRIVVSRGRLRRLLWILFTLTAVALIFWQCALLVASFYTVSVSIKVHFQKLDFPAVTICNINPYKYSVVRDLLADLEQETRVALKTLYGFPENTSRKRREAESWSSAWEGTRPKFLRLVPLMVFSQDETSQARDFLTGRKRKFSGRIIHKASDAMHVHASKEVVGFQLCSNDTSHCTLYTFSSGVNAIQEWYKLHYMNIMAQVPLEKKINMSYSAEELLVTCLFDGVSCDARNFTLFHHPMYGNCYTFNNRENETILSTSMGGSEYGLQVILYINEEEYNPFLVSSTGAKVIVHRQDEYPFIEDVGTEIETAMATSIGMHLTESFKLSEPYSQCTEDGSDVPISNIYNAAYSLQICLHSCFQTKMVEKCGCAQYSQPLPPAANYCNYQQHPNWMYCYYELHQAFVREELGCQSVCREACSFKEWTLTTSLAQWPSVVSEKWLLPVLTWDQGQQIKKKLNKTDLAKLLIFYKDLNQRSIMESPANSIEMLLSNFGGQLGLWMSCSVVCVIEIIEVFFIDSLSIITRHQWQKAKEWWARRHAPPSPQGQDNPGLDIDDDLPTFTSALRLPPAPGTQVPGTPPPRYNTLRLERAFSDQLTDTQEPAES
Procedure: One assay used to assess mechanism of action and/or potency of the compounds of the present invention involves the determination of lumenal drug inhibition of airway epithelial sodium currents measured under short circuit current (ISC) using airway epithelial monolayers mounted in Ussing chambers. Cells obtained from freshly excised human, dog, sheep or rodent airways are seeded onto porous 0.4 micron Snapwell™ Inserts (CoStar), cultured at air-liquid interface (ALI) conditions in hormonally defined media, and assayed for sodium transport activity (ISC) while bathed in Krebs Bicarbonate Ringer (KBR) in Using chambers. All test drug additions are to the lumenal bath with half-log dose addition protocols (from 1×10^−11 M to 3×10^−5 M), and the cumulative change in ISC (inhibition) recorded. All drugs are prepared in dimethyl sulfoxide as stock solutions at a concentration of 1×10^−2 M and stored at −20° C. […] After the maximal concentration ([…]) is administered, the lumenal bath is exchanged three times with fresh drug-free KBR solution, and the resultant ISC measured after each wash for approximately 5 minutes in duration. Reversibility is defined as the percent return to the baseline value for sodium current after the third wash. All data from the voltage clamps are collected via a computer interface and analyzed off-line.
Dose-effect relationships for all compounds are considered and analyzed by the Prism 3.0 program. […] The potency of the sodium channel blocking activity of representative compounds in freshly excised cell from canine airways is shown in Table 2.

ExLac Rats = assay: Phenol red thread (PRT) measurement of tear output in ExLac rats; type: in vivo, Sprague Dawley
Procedure: Procedures for Phenol Red Thread (PRT) Measurement of Tear Output:
Animal Species/Strain: Rats, Sprague Dawley (SD); Lacrimal gland surgically removed (ExLac).
Animal Number/Sex: 3-4 females/group
Test Article Formulation: All stock solutions for each dosing arm were prepared no more than 48 hours prior to the start of the study. The concentration of ENaC blockers in all test article solutions were confirmed by spectrophotometry.
Test Article Administration: Both the ipsilateral and contralateral eyes were dosed with 5 […]1 of test article solution.
Phenol Red Thread (PRT) Test: Tear production was measured using the ZoneQuick cotton thread with impregnated phenol red dye. The folded end of the thread was held in the lateral-ventral conjunctival cul-de-sac for 10 seconds. The length of tear wicking onto the thread was determined by measuring the length of the thread that changes color from yellow to red. Use of a stereomicroscope was assist in the accurate measurement (recorded in millimeters) of the wicking/color change.

For `CN(C)C(=O)[C@H](CCCCNC(=N)N)NC(=O)[C@H](CCc1ccc(CCCCNC(=N)NC(=O)c2nc(Cl)c(N)nc2N)cc1)N(C)C` [Compound I, 3,5-diamino-6-chloro-N-(N-(4-(4-((S)-3-(dimethylamino)-4-((S)-1-(dimethylamino)-6-guanidino-1-oxohexan-2-ylamino)-4-oxobutyl)phenyl)butyl)carbamimidoyl)pyrazine-2-carboxamide], the “Potency compared to amiloride” value (ENaC; Ussing chamber, primary cultures of canine bronchial epithelial cells) was greater than 100 fold, the IC50 (ENaC; canine bronchial epithelial cells, n=5, read-out: Potency (IC50) on Canine Bronchial Epithelial Cells) was 5.3 nM and the Emax (ENaC; with 3 washes, n=3, read-out: Reversal of Maximal Effect on Canine Bronchial Epithelial Cells (effect lost)) was 6.8 ± 5.1%. The “Tear output (PRT) in ExLac rats, duration of effect” value (ExLac Rats; 2 hours post-dose, all dose groups except 0.1 mM) was “still observed”, the “Tear output (PRT) in ExLac rats” value (ExLac Rats; all concentrations, 15 minutes post-dose, n=4) was “increases tear output in ExLac rats 15 minutes post-dose at or slightly below tear output values observed for normal rats” and the “Tear output, baseline corrected data, significance vs vehicle” value (ExLac Rats; single 10 mM dose, baseline corrected, p <0.03) was “statistically significant at all post-dose time points”. The “Tear volume relative to vehicle controls” value (ExLac Rats; single 10 mM dose, n=3) was “increased tear volume relative to vehicle controls” and the “Tear output, raw data, significance vs vehicle” value (ExLac Rats; single 10 mM dose, raw PRT values) was “not significant beyond 60 minutes”.

Reference: patent US10159672B2 (PARION SCIENCES, INC., priority 2011, dated 2018)
